From patent US7666390B2, “DTPA derivatives and metal complexes thereof, and radiation source and contrast agent including the metal complexes” (Korea Atomic Energy Research Institute, priority 2005, dated 2010)

Legend:
[1] = Urinary excretion of the radioactive metal (^166Ho) complex in animals, gamma camera imaging and renal time activity curves; assay type: in vivo, rabbits (New Zealand White); settings: male rabbits; for half time of the maximum activity (T1/2) / time to maximum activity (Tmax): ear vein injection 3.0±0.2 mCi, from ROI time activity curve
Experimental: Male rabbits (New Zealand White) were anesthetized by intramuscular injection of 25 mg/kg of Ketamine (Yuhan Corporation, Korea) and 6 mg/kg of Rompun (Bayer Korea), and then received through the ear vein 3.0±0.2 mCi of ^166Ho-DTPA-bis(5-amido-2,4,6-triiodoisophthalic acid). The behavior of the drug was monitored for 30 min by scanning the whole body of rabbits using a gamma camera (SIMENSE, Germany). The gamma camera was equipped with a parallel hole collimator, and was set at an energy level of 81 keV. At this energy level, images were obtained using a medium-energy collimator with a window width of 20%.
In addition, regions of interest (ROIs) were created around the right and left kidneys to produce time activity curves. From the time activity curves, time to maximum activity (Tmax) and half time of the maximum activity (T1/2) for each kidney were calculated using a computer system (SINCTRON IV, Germany), and the results are given in FIG. 6.

[2] = Urinary excretion of the radioactive metal (^99mTc) complex in animals, gamma camera imaging and renal time activity curves; assay type: in vivo, rabbits (New Zealand White); settings: male rabbits; for time to achieve maximum activity (Tmax) / time to eliminate half of the maximum activity (T1/2): ear vein injection 1.0±0.1 mCi, from ROI time activity curve
Experimental: Male rabbits (New Zealand White) were anesthetized by the intramuscular injection of 25 mg/kg of Ketamine (Yuhan Corporation, Korea) and 6 mg/kg of Rompun (Bayer Korea), and then received through the ear vein 1.0±0.1 mCi of the ^99mTc-DTPA derivative complex, ^99mTc-DTPA-mono(3-amido-2,4,6-triiodobenzoic acid). The behavior of the drug was monitored for 30 min by scanning the whole body of rabbits using a gamma camera (SIMENSE, Germany). The gamma camera was equipped with a parallel hole collimator, and was set at an energy level of 140 keV to obtain images.
In addition, regions of interest (ROIs) were created around the right and left kidneys to produce time activity curves. From the time activity curves, time to achieve maximum activity (Tmax) and time to eliminate half of the maximum activity (T1/2) for each kidney were calculated using a computer system (SINCTRON IV, Germany), and the results are given in FIG. 4.

Substance: ^166Ho-DTPA-bis(5-amido-2,4,6-triiodoisophthalic acid)
- radioactivity in the kidneys ([1]; 30 min after injection): decrease to a level near the non-specific background signal
- half time of the maximum activity (T1/2) ([1]; left kidney): 6.5 min
- time to maximum activity (Tmax) ([1]; left kidney): 1.5 min
- time from injection by which mostly excreted via the kidneys and bladder ([1]; ear vein injection, whole body gamma camera scan for 30 min, 81 keV): ≤ 30 min
- half time of the maximum activity (T1/2) ([1]; right kidney): 7.5 min
- time to maximum activity (Tmax) ([1]; right kidney): 1.75 min

Substance: ^99mTc-DTPA-mono(3-amido-2,4,6-triiodobenzoic acid)
- radioactivity in the kidneys ([2]; 30 min after injection): decrease to a level near the non-specific background signal
- time to achieve maximum activity (Tmax) ([2]; left kidney): 1 min
- time to eliminate half of the maximum activity (T1/2) ([2]; left kidney): 5 min
- time from injection by which mostly excreted via the kidneys and bladder ([2]; ear vein injection, whole body gamma camera scan for 30 min, 140 keV): ≤ 30 min
- time to achieve maximum activity (Tmax) ([2]; right kidney): 1 min
- time to eliminate half of the maximum activity (T1/2) ([2]; right kidney): 5.5 min
